# Test results: paper PMC8541546, “Identification of HLA-A2-Restricted Mutant Epitopes from Neoantigens of Esophageal Squamous Cell Carcinoma” (Vaccines, 2021)
# What was measured:
# [1] = molecular target: T1, peptide/HLA-A*0201 complex (Homo sapiens, UniProt P04439, D140Y/D185E/D98H/E176V/E277Q/G131W/G231S/I119V/I121R/I166T/I218V/L300P/L318F/N151K/N90K/P208A/P217A/Q86G/Q94H/R138H/R169H/T345S); experiment: peptide/MHC complex stabilization assay on T2A2 cells; assay type: binding; conditions: T2A2 cells pulsed with 50 μg/mL peptide and 3 μg/mL β2-M 18 h, BFA 1 h; MFI at 0, 2, 4, 6 h; time of half losing MFI of 0 h
# T1 construct: T2A2 cells (TAP-deficient HLA-A2 molecules overexpressing, cultured in IMDM medium); β2-M from Merck; host or cells: T2A2 cells
# Procedure: For the stabilization test, T2A2 cells were pulsed with 50 μg/mL mutant peptide and 3 μg/mL β2-Microglobulin (β2-M, Merck, Kenilworth, NJ, USA) in IMDM (serum-free) medium for 18 h. After three times washing, free peptides were removed and brefeldin A (BFA, 10 μg/mL, BD Bioscience, San Diego, CA, USA) was added. BFA was removed after 1 h impeding, and the cells were incubated for additional time. Finally, T2A2 was marked with anti-human HLA-A2 PE-Cyanine7 for 30 min, then analyzed by FACS Calibur (BD Bioscience, USA). MFI of 0 h was set as 100%, and the time of half losing MFI of 0 h defined the dissociation complex 50 (DC50). DC50 was computed as follows: (MFI of 0 h-MFI of (2, 4, or 6 h))/MFI of 0 h × 100%.
# HLA-A*0201 molecule = molecular target: T2, HLA-A*0201 molecule (Homo sapiens, UniProt P04439, D140Y/D185E/D98H/E176V/E277Q/G131W/G231S/I119V/I121R/I166T/I218V/L300P/L318F/N151K/N90K/P208A/P217A/Q86G/Q94H/R138H/R169H/T345S); experiment: T2A2 cell-binding assay; conditions: T2A2 cells; FI = (MFI of peptide - MFI of control without peptide)/MFI of control without peptide; anti-HLA-A2 BB7.2, flow cytometry; FI > 1 = high binding affinity
# T2 construct: T2A2 cells (TAP-deficient HLA-A2 molecules overexpressing, cultured in IMDM medium); host or cells: T2A2 cells
# Procedure: The binding affinity of neoepitope to the MHC molecule and the stable neoepitope/MHC complex are critical for inducing T cell immune response, so we first performed a T2A2 cell-binding assay and stabilization assay. The T2A2 cell-binding assay was measured as in our previous study. The binding affinity was computed as follows: fluorescence index (FI) = (mean fluorescence intensity (MFI) of peptide group-MFI of the dissolved buffer without peptide group)/MFI of the dissolved buffer without peptide group.
# KYSE140-MUT cells [2] = experiment: Intracellular cytokine assay with minigene-transfected tumor cells in vitro; assay type: cell-based, human; conditions: donors G–K; KYSE140/KYSE150 transfected with WT or MUT minigene; IFN-γ and granzyme B
# Procedure: DCs involve and play an important role in initiating CD8^+ T cell response. Consequently, ten HLA-A2^+ healthy donors’ PBMCs were isolated, autologous DCs were generated, and CTLs were induced according to the procedure described previously. In brief, PBMCs were seeded at a density of 5 × 10^6 cells/well in a 6-well plate, and after 3 h, the non-adherent cells were removed and cryopreserved for future incubation with mature autologous DCs. Differentiation of the adherent cells into dendritic cells was induced by GM-CSF (100 ng/mL, #300-03, PeproTech, Rocky Hill, NJ, USA) and IL-4 (100 ng/mL; #200-04, PeproTech, USA), with replenishment every 2 days. On day 5, maturation of DCs was induced using 100 ng/mL LPS (#L4516, Sigma-Aldrich, St. Louis, MO, USA), and maturation was checked on day 8 by flow cytometry (BD FACSCelesta™) using markers for anti-human HLA-DR, anti-human CD80, and anti-human CD86. Then, mature DCs (1 × 10^5) were pulsed with each 10 μg /mL individual peptide or no peptides (control) for 2 h at 37 °C. Next, peptide-pulsed DCs were used to prime the previously cryopreserved autologous peripheral blood lymphocytes (PBLs) at a DC/PBL ratio of 1:10 using complete RPMI-1640 media supplemented with 100 IU/mL rhIL-2 (#200-02, PeproTech, USA) and 10 ng/mL rhIL-7 (#200-07, PeproTech, USA). Half of the feeding medium was replenished every 2 days. After 7 days, PBLs were restimulated with freshly pulsed autologous DCs every 7 days.
# Then two vectors were transduced into KYSE140 (HLA-A2^+) and KYSE150 (HLA-A2^−) to get KYSE140-MUT (HLA-A2^+, MUT peptide^+), KYSE140-WT (HLA-A2^+, MUT peptide^−), KYSE150-MUT (HLA-A2^−, MUT peptide^+) and KYSE150-WT (HLA-A2^−, MUT peptide^−) cells (see Supplementary Materials for details).
# As for the transfected cells serving as target cells in the in vitro investigation, peptide-specific T cells (from HLA-A2^+ healthy donors G–K) induced by MUT peptides were co-cultured with tumor cell lines transfected with WT or MUT minigenes in IMDM medium in the presence of BFA for 5 h. […]
# KYSE140-MUT cells [3] = experiment: Intracellular cytokine staining (IFN-γ) of CTLs from immunized Tg mice; assay type: in vivo, HLA-A2.1/K^b Tg mice; conditions: 100 μg/mouse s.c. with CpG ODN 1826 once a week for three weeks; spleen lymphocytes re-stimulated with MUT peptide; KYSE140-MUT target cells; n = 5 per group
# Procedure: To investigate whether neoepitopes could induce a peptide-specific T cell response in vivo, HLA-A2.1/K^b Tg mice were used and immunized according to the procedure de-scribed previously. In brief, mutant peptides or WH-mutant peptides (100 μg per mouse) with CpG-ODN 1826 (30 μg per mouse) were injected s.c. in the back of HLA-A2.1/K^b Tg mice (five mice per group, randomly grouped) once a week for three weeks. The normal saline (NS) group was immunized s.c. only with CpG ODN 1826 (30 μg/mouse) once a week for three weeks. Five days after the last injection, spleen lymphocytes were isolated and cultured at the concentration of 5 × 10^6 cells/mL in RPMI 1640 medium. These cells were induced by the same mutant peptides (10 μg/mL) that were used for in vivo stimulation and mIL-2 (30 U/mL) for a week. Intracellular cytokine staining assay (ICS) and cytotoxic assay (E: T ratios = 20:1, 40:1, 80:1) were performed after a week induced in vitro [22].
# To test the MUT peptides stimulation of CTL response in vivo, peptide-specific T cells induced from Tg mice were co-cultured with tumor cell lines transfected with WT or MUT minigenes, as described in the in vitro assay. […] Intracellular cytokines were marked by anti-mouse IFN-γ or anti-mouse granzyme B, respectively, and analyzed by flow cytometry (BD FACSCelesta™, USA).
Sequence,DC50 (dissociation complex 50) [1],FI (fluorescence index) (HLA-A*0201 molecule),"processing and presentation of MUT peptide by transfected cells, recognized by CTLs (KYSE140-MUT cells [2])",IFN-γ secretion of CTLs (IFN-γ+ CD8+ T cells) (KYSE140-MUT cells [3])
LLGPNSFEV [TP53-R267P],>6 h,1.81,endogenously processed and presented by transfected cells,1.1%
ILWRQDINL [NFE2L2-D13N],>6 h,1.67,endogenously processed and presented by transfected cells,1.5%
QVTDFLAPL [PCLO-E4090Q],>4 h,1.85,endogenously processed and presented by transfected cells,
